{"source": "patent US20220315895A1", "about": "“METHODS OF MAKING OLIGOPOTENT AND UNIPOTENT PRECURSORS” (Transfusion Health, LLC, priority 2019, published 2022)", "format_in_all_cases": "cell-based, human", "key": {"CD15+/CD14− cells": {"tested_on": "CD15+/CD14− cells", "assay": "Respiratory burst assay, dihydrorhodamine-123 / PMA (Example 39)", "conditions": "Formula I-expanded Differentiation Cultures, day 13; 200 nM PMA 30 minutes", "procedure": "On day 13 of Granulocyte Differentiation Culture, a portion of the culture was removed for in vitro analysis of granulocyte function through two separate assays for phagocytosis and respiratory burst.\nIn the respiratory burst assay, the ability of cells to generate reactive oxygen species (used to kill ingested bacteria) was measured. Cells were first pulsed for 15 minutes with dihydrorhodamine-123, a reagent that fluoresces only after it has been oxidized to rhodamine 123. Following this incubation, cells were treated for 30 minutes with 200 nM phorbol 12-myristate 13-acetate (PMA) to non-specifically activate the respiratory burst. Control samples without PMA were also prepared. Following this incubation, cells were stained with antibodies to CD15 and CD14, washed thoroughly, then analyzed via flow cytometry on an Attune flow cytometer. CD15+/CD14− cells were quantified for rhodamine 123 fluorescence, indicating activation of oxidative burst."}, "[1]": {"tested_on": "expanded cord blood CD34+ cells, erythroid lineage (CD71, CD235a)", "assay": "Erythroid Differentiation Culture after Expansion Culture (Example 38)", "conditions": "for cells with markers of erythrocyte differentiation (CD71 and/or CD235a), of total cells: seven days Erythroid Differentiation Culture; for cells with markers of erythrocyte differentiation (CD71 and/or CD235a), of total cells / cells positive for CD235a (maturing erythrocyte differentiation): average", "procedure": "At days 21 and 63, CD34+ enriched cells were placed into Differentiation Cultures, described below.\nDifferentiation cultures were initiated using Erythroid, Myeloid (granulocyte and monocyte), and Megakaryocyte HemaTox kits from STEMCELL technologies following the manufacturer's instructions. In brief, lineage media was prepared by adding cytokine cocktails for erythrocyte (SCF, IL-3, and EPO), myeloid (i.e. mixed granulocyte/monocyte, SCF, TPO, G-CSF, and GM-CSF) or megakaryocyte (SCF, IL-6, IL-9 and TPO) lineage differentiation to their respective kits' media, then adding approximately 30-100 CD34+ cells for erythroid or myeloid cultures, or 300-1000 CD34+ cells for megakaryoid cultures. Exact cell numbers plated were quantified for later analysis. All incubations for Differentiation Culture took place at 3% oxygen (controlled by nitrogen) and 5% CO2.\nFollowing seven days of erythroid or myeloid cultures, or ten days for megakaryoid cultures, differentiated cell output was quantified using flow cytometry. Erythroid output was quantified using anti-CD71 and anti-CD235a antibodies, and megakaryocyte lineage output was quantified using anti-CD41 and anti-CD42b antibodies. Granulocyte and monocyte lineage outputs were assessed in tandem, using CD14 and CD15 antibodies, with granulocyte lineage cells being CD15+/CD14−, and monocyte lineage cells being CD14+/CD15−.\nA number of quantities were calculated to assess the effect of expansion of CD34+ cells in the +Formula I Condition on the output of lineage differentiated cells. “Per-Assayed-CD34+ Cell Output” describes the output of differentiated cells per CD34+ cell placed into Differentiation Culture, and is calculated by dividing the total number of lineage-positive cells by the input CD34+ cell number quantified at Differentiation Culture initiation at day 1, 21, or 63. “Per-expanded-day-1-CD34+ cell output” describes the number of differentiated cells of a given lineage that may be produced from a single CD34+ cell following both Expansion Cell Culture (if expanded) followed by Differentiation Culture, and is calculated by multiplying Per-Assayed-CD34+ Cell Output by the fold expansion of CD34+ cells from day 1 to the day of analysis, either day 21 or day 63. “Per-banked-CBU lineage output” describes the number of differentiated cells of a given lineage that may be produced using the CD34+ cells from a full cord blood unit, and is calculated by multiplying the per-expanded-day-1-CD34+ cell output by 2×10^6, a conservative estimate the number of CD34+ cells in an average cord held in a public cord blood bank (Sun, J., Allison, J., McLaughlin, C., Sledge, L., Waters-Pick, B., Wease, S., and Kurtzberg, J. (2010). Differences in quality between privately and publicly banked umbilical cord blood units: a pilot study of autologous cord blood infusion in children with acquired neurologic disorders. Transfusion (Paris) 50, 1980-1987). This per-banked-CBU lineage output provides the ability to gauge the number of therapeutic units that may be derived from a single cord blood unit available as input to the manufacturing of a therapeutic product, and enables comparison to current state-of-the-art methods. Where relevant therapeutic dose benchmarks were available, this per-banked-CBU lineage output was used to calculate the number of therapeutic units that may be prepared from a single banked CBU unit. We calculated therapeutic units for granulocyte precursors, using 50 billion (5×10^10) cells per dose as a conservative benchmark (Valentini, C. G., Farina, F., Pagano, L., and Teofili, L. (2017). Granulocyte Transfusions: A Critical Reappraisal. Biol. Blood Marrow Transplant. 23, 2034-2041). […]"}, "[2]": {"tested_on": "CD34+ cells from mobilized peripheral blood", "assay": "Long-term expansion of HSCs, mobilized peripheral blood (Example 36)", "conditions": "Compound 1.010 8 μM, up to 21 days, from day 1", "procedure": "CD34+ cells from mobilized peripheral blood were purchased from STEMCELL Technologies. The blood from volunteer donors was mobilized using G-CSF. Volunteers were administered a maximum of 10 μg/kg/day of granulocyte colony-stimulating factor (G-CSF) for 3-5 days prior to collection. Primary human CD34+ cells were isolated from mobilized peripheral blood leukapheresis samples using positive immunomagnetic separation techniques.\nCryopreserved CD34+ cell samples from each source were thawed and gradually brought to room temperature. Samples were washed then placed in overnight culture in StemSpan with 100 ng/ml each of FLT3L, TPO, SCF, and TL-6.\nCultures were incubated at 3% oxygen (controlled by nitrogen) and 5% CO2.\nTwenty-four hours later (day 1), cells were counted and immunophenotyped (flow cytometry on an Invitrogen Attune N×T cytometer). The media components and concentrations used for the compounds tested are described in Table 7. Culture conditions also included an antibiotic solution that includes penicillin, streptomycin, and amphotericin B to avoid contamination. Approximately 1000 cells were added to each of the cord blood and mobilized peripheral blood flasks (5 ml total volume) or wells of a 96-well plate (200 μl total volume). Approximately 2000 cells were added to each of the non-mobilized peripheral blood flasks (5 ml total volume) or wells of a 96-well plate (200 μl total volume). Exact cell numbers dispensed per condition were quantified for later calculations of fold change from day 1.\nWells were analyzed at days 7 and 10, flasks were analyzed at 14 and 21 days of incubation. Cell numbers and phenotypes were quantified with flow cytometry. At day 14, fresh conditions for flasks were prepared as on day 1, and cells were split 1:20 into the new flasks. An additional seven days later (day 21 of culture), cell numbers and phenotypes were again quantified with flow cytometry. Cell numbers calculated at day 21 account for the passaging of the cells.\nConditions in 96-well plates were prepared in quadruplicate; conditions in flasks were prepared in duplicate. On the above-indicated number of days in culture, cells from wells or flasks were collected and phenotypes were analyzed (flow cytometry on an Invitrogen Attune N×T cytometer)."}}}
{"smiles": "CC(C)(C)C(=O)Nc1ccc2c(c1)C(O)c1ccccc1-2", "note": "(stereo not shown) [Compound 1.010]", "values": [{"measurement": "cells that activated respiratory burst when stimulated with PMA", "setting": "CD15+/CD14− cells", "value": 56, "unit": "%"}, {"measurement": "fold increase of per-expanded-day-1-CD34+ cell output, erythroid lineage, over uncultured cells", "setting": "[1]; +Formula I expansion (Compound 1.010 8 μM) to day 21, then 7 days differentiation", "value": 301, "unit": "fold"}, {"measurement": "fold increase of per-expanded-day-1-CD34+ cell output, erythroid lineage, over uncultured cells", "setting": "[1]; +Formula I expansion to day 63, then 7 days differentiation", "value": "91,000 fold"}, {"measurement": "CD71−/CD235a+ cells (mature erythrocytes)", "setting": "[1]; expanded 21 or 63 days in Formula I condition, day seven of Erythroid Differentiation Culture", "value": "No CD71−/CD235a+ cells were detected"}, {"measurement": "cells with markers of erythrocyte differentiation (CD71 and/or CD235a), of total cells", "setting": "[1]; expanded 21 days in Formula I Condition", "value": 50, "unit": "%"}, {"measurement": "cells positive for CD235a (maturing erythrocyte differentiation)", "setting": "[1]; expanded 21 days in Formula I condition, day seven of Erythroid Differentiation Culture", "value": 46, "unit": "%"}, {"measurement": "cells with markers of erythrocyte differentiation (CD71 and/or CD235a), of total cells", "setting": "[1]; expanded 63 days in Formula I Condition", "value": 75, "unit": "%"}, {"measurement": "cells positive for CD235a (maturing erythrocyte differentiation)", "setting": "[1]; expanded 63 days in Formula I condition, day seven of Erythroid Differentiation Culture", "value": 86, "unit": "%"}, {"measurement": "fold expansion of CD34+ cells", "setting": "[2]", "value": "greater than 20 fold"}, {"measurement": "fold expansion of CD34+/CD133+ cells", "setting": "[2]", "value": "greater than 40 fold"}, {"measurement": "fold expansion of CD34+/CD133+/CD90+ cells", "setting": "[2]", "value": "greater than 60 fold"}, {"measurement": "fold expansion of CD34+/CD133+/CD90+/CD38low/− cells", "setting": "[2]", "value": "greater than 60 fold"}, {"measurement": "fold expansion of CD34+/CD133+/CD90+/CD45RA− cells", "setting": "[2]", "value": "greater than 30 fold"}]}
